Experimental data as given in patent US6506407B2, “Colon-specific drug release system” (Yamanouchi Pharmaceutical Co., Ltd., priority 1994, dated 2003).

Assays:
enterobacteria = test: generation of organic acid by the action of enterobacteria
[1] = system: contents of the cecum of a rat (enterobacteria); test: pH of 10 w/v % cecal contents dispersion (CPBS) with saccharide (Test Example 7); conditions: 200 mg saccharide in 20 ml 10 w/v % CPBS, 37° C.
Method: An isotonic phosphate buffer solution (pH: 7.3; PBS) was adjusted to pH 6.8 by CO2 bubbling. The contents of the cecum of a rat deprived of food for 24 hours was dispersed, therein to prepare a 10 w/v % dispersion of the cecal contents in PBS (CPBS). To 20 ml of CPBS was added 200 mg of a saccharide, and the mixture was shaken in a water bath at 37° C., and the pH of the CPBS was measured with time.

[2] = water solubility of saccharides and sugar alcohols
[3] = system: contents of the cecum (enterobacteria); test: pH change of dispersion of rat cecal contents in PBS (C-PBS) with lactulose, shaken at 37° C. under anaerobic condition (Test Example 2); design: species or system SD male rat
Method: A 1/15 M phosphate buffer solution (NaH2PO4-Na2HPO4; pH 7.3; hereinafter referred to as PBS) was made isotonic by addition of sodium chloride and adjusted to pH 6.8 by CO2 bubbling. The contents of the cecum of an SD male rat was dispersed therein to prepare a 10 w/v % dispersion of the cecal contents in PBS (hereinafter referred to as C-PBS). To 10 ml of C-PBS was added 100 mg of lactulose, and the mixture was shaken (50 strokes/min) at 37° C. under an anaerobic condition, and the pH change was measured. As a control, the same test was conducted on no lactulose-administered C-PBS. The same test was carried out on a mixture of 30 w/v % C-PBS and lactulose. As shown in the table, the pH of the cecal contents rapidly decreases by the addition of lactulose.

[4] = pH in the cecum with time after oral lactulose aqueous solution (Test Example 3); format: in vivo, SD male rats; conditions: for pH in the cecum: oral 100 mg/rat
Method: SD male rats deprived of food overnight were orally given a lactulose aqueous solution (100 mg/rat), and the pH in the cecum was measured with time.

[5] = phosphorus concentration in plasma after salmon calcitonin; format: in vivo; conditions: beagle dogs in fasted condition, s.c., 50 IU/animal, versus untreated control
Method: The following solution was subcutaneously administered to beagle dogs in fasted condition. Blood was taken with time to determine the phosphorus concentration in plasma using Inorganic Phosphorus E-HA Test Wako (Wako Pure Chemical Industries, Ltd.).
1% Gelatin solution containing 50 IU/0.2 ml of salmon calcitonin (pH 3; 0.2 ml; 50 IU/animal)
A single tablet of the preparation obtained in Examples 21, 22 or 24 or two tablets of the preparation obtained in Example 23 was administered orally to beagle dogs together with 30 ml of water, and blood was taken with time to determine the phosphorus concentration in plasma.
A single tablet of the preparation obtained in Examples 25, 26 or 28 or two tablets of the preparation obtained in Example 27 was administered orally to beagle dogs together with 30 ml of water, and blood was taken with time to determine the phosphorus concentration in plasma.

OC[C@H]1O[C@H](O[C@H]2[C@H](O)[C@@H](O)[C@H](O)O[C@@H]2CO)[C@H](O)[C@@H](O)[C@@H]1O [maltose]
rapid generation of an organic acid by enterobacteria (enterobacteria): generate an organic acid rapidly
degradation by enterobacteria with organic acid generation (pH of CPBS with time) [1]: degraded by enterobacteria to generate an organic acid similarly to lactulose

O=C[C@H](O)[C@H](O)[C@H](O)CO [ribose]
rapid generation of an organic acid by enterobacteria (enterobacteria): no rapid generation of an organic acid
water solubility [2]: low

OC[C@@H](O)[C@@H](O)[C@H](O)[C@@H](O)CO [sorbitol]
rapid generation of an organic acid by enterobacteria (enterobacteria): rapid generation of an organic acid was not observed
water solubility [2]: high

O=C(CO)[C@@H](O)[C@H](O)[C@H](O)CO [fructose]
rapid generation of an organic acid by enterobacteria (enterobacteria): generate an organic acid rapidly
degradation by enterobacteria with organic acid generation (pH of CPBS with time) [1]: degraded by enterobacteria to generate an organic acid similarly to lactulose
water solubility [2]: high

fructooligosaccharide
degradation by enterobacteria with organic acid generation (pH of CPBS with time) [1]: degraded by enterobacteria to generate an organic acid similarly to lactulose

OC[C@H]1O[C@@](CO)(O[C@H]2O[C@H](CO)[C@@H](O)[C@H](O)[C@H]2O)[C@@H](O)[C@@H]1O [sucrose]
rapid generation of an organic acid by enterobacteria (enterobacteria): generate an organic acid rapidly
degradation by enterobacteria with organic acid generation (pH of CPBS with time) [1]: degraded by enterobacteria to generate an organic acid similarly to lactulose
water solubility [2]: high

OC[C@H]1O[C@@H](O[C@@H]2[C@@H](CO)OC(O)(CO)[C@H]2O)[C@H](O)[C@@H](O)[C@H]1O (mixture of isomers) [lactulose]
pH of C-PBS ([3]; 10 w/v % C-PBS 10 ml, lactulose 100 mg, 0 hr): 6.42
pH of C-PBS ([3]; 10 w/v % C-PBS 10 ml, lactulose 100 mg, 2 hr): 5.93
pH of C-PBS ([3]; 10 w/v % C-PBS 10 ml, lactulose 100 mg, 4 hr): 5.64
pH of C-PBS ([3]; 10 w/v % C-PBS 10 ml, lactulose 100 mg, 6 hr): 5.41
pH of C-PBS ([3]; 10 w/v % C-PBS 10 ml, lactulose 100 mg, 8 hr): 5.27
pH of C-PBS ([3]; 10 w/v % C-PBS 10 ml, lactulose 100 mg, 24 hr): 4.76
pH of C-PBS ([3]; 30 w/v % C-PBS and lactulose, 0 hr): 6.42
pH of C-PBS ([3]; 30 w/v % C-PBS and lactulose, 2 hr): 5.39
pH of C-PBS ([3]; 30 w/v % C-PBS and lactulose, 4 hr): 5.25
pH of C-PBS ([3]; 30 w/v % C-PBS and lactulose, 6 hr): 5.15
pH of C-PBS ([3]; 30 w/v % C-PBS and lactulose, 8 hr): 5.08
rapid generation of an organic acid by enterobacteria (enterobacteria): degraded rapidly to generate an organic acid
duration of pH reduction in the cecum ([4]; 100 mg/animal): 8 hours
pH in the cecum reduced to ([4]; 100 mg/animal, in 3 to 4 hours from the administration): about 5.5
pH in the cecum ([4]; 1 hr): 8.2
pH in the cecum ([4]; 2 hr): 6.8
pH in the cecum ([4]; 3 hr): 6.2
pH in the cecum ([4]; 4 hr): 5.5
pH in the cecum ([4]; 5 hr): 5.6
pH in the cecum ([4]; 6 hr): 5.8
pH in the cecum ([4]; 7 hr): 5.3
pH in the cecum ([4]; rats deprived of food overnight, 0 hr): 7.6

Cc1occc(=O)c1O [maltol]
rapid generation of an organic acid by enterobacteria (enterobacteria): rapid generation of an organic acid was not observed
water solubility [2]: low

OC[C@H]1O[C@@H](O[C@H]2[C@H](O)[C@@H](O)C(O)O[C@@H]2CO)[C@H](O)[C@@H](O)[C@H]1O (stereo partly drawn) [lactose]
rapid generation of an organic acid by enterobacteria (enterobacteria): no rapid generation of an organic acid

OC[C@@H](O)[C@@H](O)[C@H](O)[C@H](O)CO [mannitol]
rapid generation of an organic acid by enterobacteria (enterobacteria): rapid generation of an organic acid was not observed
water solubility [2]: medium

O=C[C@H](O)[C@@H](O)[C@@H](O)[C@H](O)CO [galactose]
rapid generation of an organic acid by enterobacteria (enterobacteria): generate an organic acid rapidly
degradation by enterobacteria with organic acid generation (pH of CPBS with time) [1]: degraded by enterobacteria to generate an organic acid similarly to lactulose
water solubility [2]: high

O=C[C@H](O)[C@@H](O)[C@H](O)CO [xylose]
rapid generation of an organic acid by enterobacteria (enterobacteria): generate an organic acid rapidly
water solubility [2]: high

OC[C@@H](O)[C@H](O)[C@@H](O)CO [xylitol]
rapid generation of an organic acid by enterobacteria (enterobacteria): rapid generation of an organic acid was not observed
water solubility [2]: high

salmon calcitonin
phosphorus level in plasma after subcutaneous administration [5]: suppressed immediately after the administration
